Patent publication US10913753B2, “Thienopyridine carboxamides as ubiquitin-specific protease inhibitors” (FORMA Therapeutics, Inc., priority 2016, dated 2021)

Columns and labels:
USP25 = USP25 (Homo sapiens (Human), UniProt Q9UHP3); assay: Ubiquitin-Rhodamine 110 Assay for USP25 Activity; type: biochemical
Method: The assay was performed in a final volume of 9 μL in assay buffer containing 20 mM Tris-HCl (pH 8.0, (1M Tris-HC1, pH 8.0 solution; Corning 46-031-CM)), 3 mM BME (2-Mercaptoethanol; Sigma 63689-25ML-F), 0.03% BGG (0.22 μM filtered, Sigma, G7516-25G), and 0.01% Triton X-100 (Sigma, T9284-10L). Nanoliter quantities of 10-point, 3-fold serial dilution in DMSO was pre-dispensed into 1536 assay plates (Corning, #3724BC) for a final test concentration of 25 μM to 1.3 nM, top to lowest dose, respectively. Enzyme USP25, construct USP25-His6, (Boston Biochem E-546). Concentration and incubation times were optimized for the maximal signal-to-background while maintaining initial velocity conditions at a fixed substrate concentration. The final concentration of the enzyme in the assay was 75 pM. […] 3 μL of 2× enzyme was added to assay plates (pre-stamped with compound) preincubated with […] for 30 minutes and then 3 μL of 2× Ub-Rh110 was added to assay plates. Plates were incubated for 45 minutes at room temperature before addition of 3 μL of stop solution (final concentration of 10 mM citric acid (Sigma, 251275-500G)). Fluorescence was read on the Envision (Excitation at 485 nm and Emission at 535 nm; Perkin Elmer) or on the PheraSTAR (Excitation at 485 nm and Emission at 535 nm; BMG Labtech).
(§1) For both the USP28 and USP25 assay formats, data were reported as percent inhibition compared with control wells based on the following equation: % inh=1-((FLU-AveLow)/(AveHigh−AveLow)) where FLU=measured Fluorescence, AveLow=average Fluorescence of no enzyme control (n=16), and AveHigh=average Fluorescence of DMSO control (n=16). IC50 values were determined by curve fitting of the standard 4 parameter logistic fitting algorithm included in the Activity Base software package: IDBS XE Designer Model205. Data is fitted using the Levenburg Marquardt algorithm.

USP28 = USP28 (Homo sapiens (Human), UniProt Q96RU2); assay: Ubiquitin-Rhodamine 110 Assay for USP28 Activity; type: biochemical
Method: The assay was performed in a final volume of 20 μL in assay buffer containing 20 mM Tris-HCl (pH 8.0, (1M Tris-HCl, pH 8.0 solution; Corning 46-031-CM)), 2 mM CaCl2 (1M Calcium Chloride solution; Sigma #21114) 2 mM BME (2-Mercaptoethanol; Sigma 63689-25ML -F), 0.01% Prionex (0.22 μM filtered, Sigma #G-0411), and 0.01% Triton X-100. Stock compound solutions were stored at −20° C. as 10 mM in DMSO. Up to 1 month prior to the assay, 2 mM test compounds were pre-dispensed into assay plates (Black, low volume; Corning #3820) and frozen at −20° C. Prestamped assay plates were allowed to come to room temperature on the day of the assay. For the screen, 100 nL of 2 mM was pre-dispensed for a final screening concentration of 10 μM (DMSO(fc)=0.5%). […] Plates were incubated stacked for 90 minutes at room temperature before fluorescence was read on the Envision (Excitation at 485 nm and Emission at 535 nm; Perkin Elmer) or on the PheraSTAR (Excitation at 485 nm and Emission at 535 nm; BMG Labtech).
For follow-up studies, the assay was performed in a final volume of 15 μL in assay buffer containing 20 mM Tris-HCl (pH 8.0, (1M Tris-HCl, pH 8.0 solution; Corning 46-031-CM)), 3 mM BME (2-Mercaptoethanol; Sigma 63689-25ML-F), 0.03% BGG (0.22 μM filtered, Sigma, G7516-25G), and 0.01% Triton X-100 (Sigma, T9284-10L). Nanoliter quantities of either an 8-point or 10-point, 3-fold serial dilution in DMSO was pre-dispensed into assay plates (Perkin Elmer, ProxiPlate-384 F Plus) for a final test concentration of either 25 μM to 11 nM or 25 μM to 1.3 nM, respectively. Enzyme USP28, construct USP28 (USP28-5(1-1077)-TEV-6*His; LifeSensors) concentration and incubation times were optimized for the maximal signal-to -background while maintaining initial velocity conditions at a fixed substrate concentration. The final concentration of the enzyme in the assay was 75 pM. […] 5 μL of 2× enzyme was added to assay plates (pre-stamped with compound) preincubated with USP28 for 30 minutes and then 5 μL of 2× Ub-Rh110 was added to assay plates. Plates were incubated stacked for 20 min at room temperature before 5 μL of stop solution was added (final concentration of 10 mM citric acid (Sigma, 251275-500G)). Fluorescence was read on the Envision (Excitation at 485 nm and Emission at 535 nm; Perkin Elmer) or on the PheraSTAR (Excitation at 485 nm and Emission at 535 nm; BMG Labtech).
as §1

USP28, sequence (Q96RU2 whole entry): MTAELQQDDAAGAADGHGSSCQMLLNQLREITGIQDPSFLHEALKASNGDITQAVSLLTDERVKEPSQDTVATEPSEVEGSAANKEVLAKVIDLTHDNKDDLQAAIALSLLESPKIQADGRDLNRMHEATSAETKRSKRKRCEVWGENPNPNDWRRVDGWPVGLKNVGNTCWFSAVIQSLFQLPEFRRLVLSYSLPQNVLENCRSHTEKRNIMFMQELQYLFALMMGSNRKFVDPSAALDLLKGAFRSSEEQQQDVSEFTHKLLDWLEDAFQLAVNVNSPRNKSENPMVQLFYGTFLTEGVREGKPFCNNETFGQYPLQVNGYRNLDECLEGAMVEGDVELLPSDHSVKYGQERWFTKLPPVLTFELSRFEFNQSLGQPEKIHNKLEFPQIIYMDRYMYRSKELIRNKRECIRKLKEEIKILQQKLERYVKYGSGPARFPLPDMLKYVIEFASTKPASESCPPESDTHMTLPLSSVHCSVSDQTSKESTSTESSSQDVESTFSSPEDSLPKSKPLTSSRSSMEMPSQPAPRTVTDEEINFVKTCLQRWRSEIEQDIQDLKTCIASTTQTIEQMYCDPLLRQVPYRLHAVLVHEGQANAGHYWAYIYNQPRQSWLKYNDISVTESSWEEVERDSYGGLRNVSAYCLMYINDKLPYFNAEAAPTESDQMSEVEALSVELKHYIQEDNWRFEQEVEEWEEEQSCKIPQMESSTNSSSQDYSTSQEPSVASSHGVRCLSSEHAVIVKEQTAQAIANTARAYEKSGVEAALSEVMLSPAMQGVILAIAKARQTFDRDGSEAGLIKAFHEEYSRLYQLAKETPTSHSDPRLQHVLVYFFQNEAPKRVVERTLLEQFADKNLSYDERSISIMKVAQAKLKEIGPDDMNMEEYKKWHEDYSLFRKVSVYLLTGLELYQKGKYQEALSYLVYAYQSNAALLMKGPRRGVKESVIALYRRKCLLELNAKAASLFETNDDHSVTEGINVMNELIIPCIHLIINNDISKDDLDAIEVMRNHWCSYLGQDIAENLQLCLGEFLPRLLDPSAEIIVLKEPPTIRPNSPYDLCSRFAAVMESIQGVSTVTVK
USP25, sequence (Q9UHP3 whole entry): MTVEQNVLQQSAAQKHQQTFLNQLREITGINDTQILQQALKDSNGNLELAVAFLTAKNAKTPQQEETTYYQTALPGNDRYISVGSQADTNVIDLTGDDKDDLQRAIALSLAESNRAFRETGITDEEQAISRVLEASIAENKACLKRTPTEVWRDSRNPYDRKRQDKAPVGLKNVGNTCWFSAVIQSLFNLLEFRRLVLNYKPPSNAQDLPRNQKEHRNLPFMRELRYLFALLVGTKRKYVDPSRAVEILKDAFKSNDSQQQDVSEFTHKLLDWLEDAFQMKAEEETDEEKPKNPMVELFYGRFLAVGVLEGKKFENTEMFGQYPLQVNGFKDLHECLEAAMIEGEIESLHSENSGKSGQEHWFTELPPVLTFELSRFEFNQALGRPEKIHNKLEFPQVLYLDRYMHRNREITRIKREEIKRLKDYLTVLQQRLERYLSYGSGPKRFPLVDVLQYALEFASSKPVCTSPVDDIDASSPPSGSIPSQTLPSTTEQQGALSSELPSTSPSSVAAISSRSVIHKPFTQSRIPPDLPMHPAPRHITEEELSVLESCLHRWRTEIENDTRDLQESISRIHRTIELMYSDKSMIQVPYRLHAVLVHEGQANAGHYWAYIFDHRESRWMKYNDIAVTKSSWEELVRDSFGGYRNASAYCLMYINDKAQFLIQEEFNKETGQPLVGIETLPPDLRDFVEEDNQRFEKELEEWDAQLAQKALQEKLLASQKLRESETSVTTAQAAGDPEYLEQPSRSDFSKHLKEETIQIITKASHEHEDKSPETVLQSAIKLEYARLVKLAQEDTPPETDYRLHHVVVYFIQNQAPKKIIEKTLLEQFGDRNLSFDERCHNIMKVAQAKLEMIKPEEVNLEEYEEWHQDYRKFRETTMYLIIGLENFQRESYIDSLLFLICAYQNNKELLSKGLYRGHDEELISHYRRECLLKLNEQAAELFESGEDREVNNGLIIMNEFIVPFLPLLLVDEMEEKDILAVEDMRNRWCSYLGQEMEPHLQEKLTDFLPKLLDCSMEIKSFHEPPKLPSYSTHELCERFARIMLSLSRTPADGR

## Nc1nc2sc(C(=O)NCCc3ccc(N4CCNCC4)cc3)c(N)c2cc1F [Example I-115, 3,6-Diamino-5-fluoro-N-(4-(piperazin-1-yl)phenethyl)thieno[2,3-b]pyridine-2-carboxamide]
USP25
  IC50: 200 to 2000 nM
USP28
  IC50: < 200 nM

## Cc1ccc2c(N)c(C(=O)NCCc3ccc(N4CC5CCC(C4)N5)cc3Cl)sc2n1 [Compound I-21]
USP25
  IC50: < 200 nM
USP28
  IC50: < 200 nM

## Cc1cc(N)nc2sc(C(=O)NCCc3ccc(N4CCNCC4)cc3)c(N)c12 [Example I-183, 3,6-Diamino-4-methyl-N-(4-(piperazin-1-yl)phenethyl)thieno[2,3-b]pyridine-2-carboxamide]
USP25
  IC50: 200 to 2000 nM
USP28
  IC50: 200 to 2000 nM

## CC(C)Oc1ccc2c(N)c(C(=O)NCCc3ccc(N4CCNCC4)cc3)sc2n1 [Example I-192]
USP25
  IC50: 2000 to 10000 nM
USP28
  IC50: 200 to 2000 nM

## Cc1ccc2c(N)c(C(=O)NC[C@H](C)c3cc(F)c(N4CCNCC4)cc3F)sc2n1 [Example I-208]
USP25
  IC50: 2000 to 10000 nM
USP28
  IC50: 200 to 2000 nM

## Cc1ccc2c(N)c(C(=O)NCCc3cnc(N4CCNCC4)c(Cl)c3)sc2n1 [Example I-215, 3-Amino-N-(2-(5-chloro-6-(piperazin-1-yl)pyridin-3-yl)ethyl)-6-methylthieno[2,3-b]pyridine-2-carboxamide]
USP25
  IC50: 2000 to 10000 nM
USP28
  IC50: 200 to 2000 nM

## Cc1ccc2c(N)c(C(=O)NCCc3ccc(N4CCNCC4)c4c3CCC4)sc2n1 [Compound I-18]
USP25
  IC50: < 200 nM
USP28
  IC50: < 200 nM

## Cc1nc2sc(C(=O)NC[C@H](C)c3cc(F)c(N4CC5CCC(C4)N5)cc3F)c(N)c2cc1F (single isomer, unassigned) [Example I-112]
USP25
  IC50: 2000 to 10000 nM
USP28
  IC50: 200 to 2000 nM

## Cc1ccc2c(N)c(C(=O)NCCc3ccc(N4CC[C@@H](NC(C)C)C4)cc3)sc2n1 [Compound I-201]
USP25
  IC50: 200 to 2000 nM
USP28
  IC50: 200 to 2000 nM

## Nc1c(C(=O)NCCc2ccc(N3CCNCC3)c(Cl)c2)sc2ncc(Cl)cc12 [Compound I-40]
USP25
  IC50: 2000 to 10000 nM
USP28
  IC50: 200 to 2000 nM

## Cc1cc(C(F)(F)F)c2c(N)c(C(=O)NCCc3ccc(N4CCNCC4)c(F)c3)sc2n1 [Compound I-7]
USP25
  IC50: < 200 nM
USP28
  IC50: 200 to 2000 nM

## CN[C@H]1CN(c2cc(F)c(CCNC(=O)c3sc4nc(C)ccc4c3N)cc2F)C[C@@H]1F (single isomer, unassigned) [Example I-214]
USP25
  IC50: 2000 to 10000 nM
USP28
  IC50: 200 to 2000 nM

## Cc1ccc2c(N)c(C(=O)N[C@H]3C[C@H](c4ccc(N5CCNCC5)cc4)C3)sc2n1 [Example I-92, trans-3-amino-6-methyl-N-(3-(4-(piperazin-1-yl)phenyl)cyclobutyl)thieno[2,3-b]pyridine-2-carboxamide]
USP25
  IC50: 200 to 2000 nM
USP28
  IC50: 200 to 2000 nM

## Cc1ccc2c(N)c(C(=O)NCCc3ccc(C4CC5CCC(C4)N5)cc3)sc2n1 (single isomer, unassigned) [Example I-171, N-(4-(8-azabicyclo[3.2.1]octan-3-yl)phenethyl)-3-amino-6-methylthieno[2,3-b]pyridine-2-carboxamide]
USP25
  IC50: 200 to 2000 nM
USP28
  IC50: 200 to 2000 nM

## Cc1ccc2c(N)c(C(=O)NCCc3ccc(C4CCNCC4)c(Cl)c3)sc2n1 [Compound I-205]
USP25
  IC50: 200 to 2000 nM
USP28
  IC50: < 200 nM

## CCc1cc(CCNC(=O)c2sc3nc(C)ccc3c2N)ccc1N1CCNCC1 [Example I-78]
USP25
  IC50: 200 to 2000 nM
USP28
  IC50: < 200 nM

## Cc1ccc2c(N)c(C(=O)NCCc3ccc([C@@H]4CCNC4)cc3)sc2n1 (single isomer, unassigned) [Example I-181]
USP25
  IC50: 200 to 2000 nM
USP28
  IC50: < 200 nM

## CN[C@@H]1CCN(c2ccc(CCNC(=O)c3sc4nc(C)ccc4c3N)cc2Cl)C1 [Example I-85]
USP25
  IC50: 200 to 2000 nM
USP28
  IC50: 200 to 2000 nM

## Cc1ccc2c(N)c(C(=O)NCCc3ccc(O[C@@H]4COC5(CNC5)C4)cc3)sc2n1 (single isomer, unassigned) [Example I-218]
USP25
  IC50: 200 to 2000 nM
USP28
  IC50: 200 to 2000 nM

## Cc1ccc2c(N)c(C(=O)NCCc3ccc(N4CCn5ccnc5C4)cc3)sc2n1 [Example I-116, 3-Amino-N-(4-(5,6-dihydroimidazo[1,2-a]pyrazin-7(8H)-yl)phenethyl)-6-methylthieno[2,3-b]pyridine-2-carboxamide]
USP25
  IC50: 200 to 2000 nM
USP28
  IC50: 200 to 2000 nM

## Cc1cc(C(F)F)c2c(N)c(C(=O)NCCc3ccc(N4CCNCC4)cc3)sc2n1 [Compound I-14]
USP25
  IC50: < 200 nM
USP28
  IC50: < 200 nM

## Cc1ccc2c(N)c(C(=O)NCCc3ccc(N4CCNCC4)c(F)c3)sc2n1 [Example I-10, 3-Amino-N-(3-fluoro-4-(piperazin-1-yl)phenethyl)-6-methylthieno[2,3-b]pyridine-2-carboxamide]
USP25
  IC50: 200 to 2000 nM
USP28
  IC50: 2000 to 10000 nM

## Nc1c(C(=O)NCCc2ccc(N3CCNCC3)cc2)sc2nc3c(cc12)CCC3O (centres unmarked) [Example I-223, 3-Amino-7-hydroxy-N-(4-(piperazin-1-yl)phenethyl)-6,7-dihydro-5H-cyclopenta[b]thieno[3,2-e]pyridine-2-carboxamide]
USP25
  IC50: 200 to 2000 nM
USP28
  IC50: 2000 to 10000 nM

## Cc1ccc2c(N)c(C(=O)NCCc3ccc(N4CCNCC4)cc3Cl)sc2n1 [Example I-76]
USP25
  IC50: 200 to 2000 nM
USP28
  IC50: < 200 nM

## Nc1c(C(=O)NCCc2ccc(N3CCNCC3)cc2)sc2nc(OC(F)F)ccc12 [Example I-193, 3-Amino-6-(difluoromethoxy)-N-(4-(piperazin-1-yl)phenethyl)thieno[2,3-b]pyridine-2-carboxamide]
USP25
  IC50: 200 to 2000 nM
USP28
  IC50: < 200 nM

## Cc1ccc2c(N)c(C(=O)NCCc3ccc(N4CC5CCC(C4)N5)c(F)c3)sc2n1 [Example I-88]
USP25
  IC50: 200 to 2000 nM
USP28
  IC50: < 200 nM

## CCc1ccc2c(N)c(C(=O)NCCc3ccc(N4CCNCC4)cc3)sc2n1 [Compound I-47]
USP25
  IC50: < 200 nM
USP28
  IC50: < 200 nM

## Nc1cc(C(F)F)c2c(N)c(C(=O)NCCc3ccc(N4CCNCC4)cc3)sc2n1 [Compound I-16]
USP25
  IC50: 200 to 2000 nM
USP28
  IC50: < 200 nM

## Cc1ccc2c(N)c(C(=O)NCCc3ccc(N4CCNCC4)c(-c4ccc(C(=O)N5CCCC5)cc4)c3)sc2n1 [Example I-165]
USP25
  IC50: 10000 to 25000 nM
USP28
  IC50: 200 to 2000 nM

## Cc1cc2c(N)c(C(=O)NCCc3ccc(N4CCNCC4)c(Cl)c3)sc2nc1C [Compound I-31]
USP25
  IC50: 2000 to 10000 nM
USP28
  IC50: 2000 to 10000 nM

## Cc1ccc2c(N)c(C(=O)NCCc3cc(F)c(N4C[C@H]5C[C@@H]4CN5)cc3F)sc2n1 [Compound I-53]
USP25
  IC50: < 200 nM
USP28
  IC50: < 200 nM

## Cc1cc2c(N)c(C(=O)NCCc3ccc(N4CCNCC4)cc3)sc2nc1C [Compound I-61]
USP25
  IC50: 2000 to 10000 nM
USP28
  IC50: 200 to 2000 nM

## Nc1c(C(=O)NCCc2ccc(N3CCNCC3)cc2)sc2nc(C(F)(F)F)ccc12 [Compound I-33]
USP25
  IC50: 2000 to 10000 nM
USP28
  IC50: 2000 to 10000 nM

## Cc1ccc2c(N)c(C(=O)NC[C@@H](C)c3ccc(N4CCNCC4)cc3)sc2n1 [Example I-203]
USP25
  IC50: 2000 to 10000 nM
USP28
  IC50: 200 to 2000 nM
